A value given as a limit tells only on which side of the number the result lay.

The test system of this test is HCV replicon. The test is described as follows: HCV replicon replication assay (NPT ELISA) in Huh-7 replicon-containing cells. It is filed as cell-based, Hepatitis C virus. To be noted: inhibition of HCV replicon replication, Huh-7 HCV replicon-containing cells, three days. The method, then: Compounds claimed herein are tested for the ability to inhibit viral replication of the Hepatitis C replicon in cultured cells in which the HCV replicon construct has been incorporated. The HCV replicon system was described by Bartenschlager, et. al (Science, 285, pp. 110-113 (1999)). The replicon system is predictive of in vivo anti-HCV activity; compounds that are active in humans uniformly evidence activity in the replicon assay.
In this assay HCV replicon containing cells are treated with different concentrations of the test compound to ascertain the ability of the test compound to suppress replication of the HCV replicon. As a positive control, HCV replicon-containing cells are treated with different concentrations of interferon alpha, a known inhibitor of HCV replication. The replicon assay system includes Neomycin Phosphotransferase (NPT) as a component of the replicon itself in order to detect the transcription of replicon gene products in the host cell. Cells in which the HCV replicon is actively replicating have high levels of NPT; the level of NPT is proportional to HCV replication. […] The NPT level of each sample is measured using a captured ELISA.
The HCV replicon contains, 5′-3′, the HCV-IRES, the neomycin phosphotransferase (neo) gene, the IRES of encephalomyocarditis virus, which directs translation of HCV sequences NS3 to NS5B, and the 3′-NTR. The sequence of the HCV replicon has been deposited in GenBank (Accession no. AJ242652).
The replicon is transfected into Huh-7 cells using standard methods such as electroporation.
HCV replicon-containing cells are rinsed with once PBS once; 2 mls of trypsin are then added. Cells are incubated at 37° C. in a 5% CO2 incubator for 3-5 minutes. 10 mls of complete medium is added to stop the reaction. Cells are blown gently, put into a 15 ml tube, and spun at 1200 rpm for four minutes. The trypsin/medium solution is removed and 5 mls of medium (500 ml DMEM (high glucose)) from BRL catalog #12430-054; 50 mls 10% FBS, 5% Geneticin G418 (50 mg/ml, BRL catalog #10131-035), 5 ml MEM non-essential amino acids (100×BRL #11140-050) and 5 ml pen-strep (BRL #15140-148) is added. The cells and media are mixed carefully
Cells are plated with screening medium (500 ml DMEM (BRL #21063-029), 50 ml FBS (BRL #10082-147) and 5 ml MEM non-essential amino acid (BRL #11140-050) at 6000-7500 cells/100 μl/well of 96 well plate (6-7.5×10^5 cells/10 ml/plate). Plates are placed into 37° C. 5% CO2 incubator overnight. 6D. Assay
The following morning, drugs (test compounds or interferon alpha) are diluted in 96 well U bottom plates with media or DMSO/media, depending on the final concentration chosen for screening. Generally for 6 concentrations of each test compounds ranging from 10 micromolar to 0.03 micromolar are applied. 100 μl of the test compound dilution is placed in wells of the 96 well plate containing the HCV replicon cells. Media without drug is added to some wells as a negative controls. DMSO is known to affect cell growth. Therefore, if drugs diluted in DMSO are used, all wells, including negative control (media only) and positive control (interferon alpha) wells, must contain the same concentration of DMSO, for single dose screening. The plates are incubated at 37° C. in a humidified 5% CO2 environment for three days.
On day four, the NTPII assay is quantitated. The medium is poured from the plates and the plates are washed once in 200 μl of PBS. The PBS is then decanted and the plates tapped in a paper towel to remove any remaining PBS. Cells are fixed in situ with 100 id/well of pre-cooled (−20° C.) methanol:acetone (1:1) and the plates are placed at −20° C. for 30 minutes.
The fixing solution is poured from the plates and the plates allowed to air-dry completely (approximately one hour). The appearance of the dried cell layer is recorded and the density of the cells in the toxic wells is scored with the naked eye. […]

As for `CCCC(NC(=O)C1C2CCCC2CN1C(=O)C(C)N1CCCCC1)C(=O)C(=O)NC1CC1` (stereo not shown) [Compound 35, N-(1-(cyclopropylamino)-1,2-dioxohexan-3-yl)-2-(2-(piperidin-1-yl)propanoyl)octahydrocyclopenta [c]pyrrole-1-carboxamide], the EC50 (Hepatitis C virus, 72 h) was below 100 µM.

With `CCCC(NC(=O)C1C2CCCC2CN1C(=O)C(c1ccccc1)N1CCCCC1)C(=O)C(=O)NC1CC1` (stereo not shown) [Compound 36, N-(1-(cyclopropylamino)-1,2-dioxohexan-3-yl)-2-(2-phenyl-2-(piperidin-1-yl)acetyl)octahydrocyclopenta[c] pyrrole-1-carboxamide], where the note is “Hepatitis C virus, 72 h”, the concentration for a half-maximal effect (EC50) is below 100 µM.

For the setting “Hepatitis C virus, 72 h”, `CCCC(NC(=O)C1C2CCCC2CN1C(=O)C(C)N1CCCCCC1)C(=O)C(=O)NC1CC1` (stereo not shown) [Compound 37, 2-(2-(azepan-1-yl)propanoyl)-N-(1-(cyclopropylamino)-1,2-dioxohexan-3-yl)octahydrocyclopenta[c]pyrrole-1-carboxamide] came in with an EC50 below 100 µM.

`CCCC(NC(=O)C1C2CCCC2CN1C(=O)[C@@H](NC(=O)OC(C)(C)C)C(C)(C)C)C(=O)C(=O)NC1CC1` (stereo partly drawn) [Compound 39, tert-butyl(2S)-1-(1-(1-(cyclopropylamino)-1,2-dioxohexan-3-ylcarbamoyl)hexahydrocyclopenta[c]pyrrol-2(1H)-yl)-3,3-dimethyl-1-oxobutan-2-ylcarbamate] came in with an EC50 (Hepatitis C virus, 72 h) below 100 µM.

The compound `CCCC(NC(=O)C1C2CCCC2CN1C(=O)C(C)N1CCCC1)C(=O)C(=O)NC1CC1` (stereo not shown) [Compound 40, N-(1-(cyclopropylamino)-1,2-dioxohexan-3-yl)-2-(2-(pyrrolidin-1-yl)propanoyl)octahydrocyclopenta [c]pyrrole-1-carboxamide] showed an EC50 (Hepatitis C virus, 72 h) below 100 µM.

Turning to `CCCC(NC(=O)C1C2CCCC2CN1C(=O)[C@@H](C)N1CCCCC1)C(=O)C(=O)NC1CC1` (stereo partly drawn) [Compound 42, N-(1-(cyclopropylamino)-1,2-dioxohexan-3-yl)-2-((R)-2-(piperidin-1-yl)propanoyl)octahydrocyclopenta [c]pyrrole-1-carboxamide], the EC50 (Hepatitis C virus, 72 h) was above 100 µM.

The compound `CCCC(NC(=O)C1C2CCCC2CN1C(=O)[C@@H](C)N1CCCC1)C(=O)C(=O)NC1CC1` (stereo partly drawn) [Compound 43, N-(1-(cyclopropylamino)-1,2-dioxohexan-3-yl)-2-((R)-2-(pyrrolidin-1-yl)propanoyl)octahydrocyclopenta [c]pyrrole-1-carboxamide] yielded an EC50 (Hepatitis C virus, 72 h) above 100 µM.

Under “Hepatitis C virus, 72 h”, `CCCC(NC(=O)[C@@H]1C[C@@H](OC(=O)N2CCc3ccccc3C2)CN1C(=O)C(C)N1CCCCC1)C(=O)C(=O)NC1CC1` (stereo partly drawn) [Compound 44, (3R,5S)-5-(1-(cyclopropylamino)-1,2-dioxohexan-3-ylcarbamoyl)-1-(2-(piperidin-1-yl)propanoyl)pyrrolidin-3-yl 3,4-dihydroisoquinoline-2(1H)-carboxylate] gave a concentration giving a half-maximal response (EC50) below 100 µM.

On to `CCCC(NC(=O)C1C[C@@H](OC(=O)N2CCc3ccccc3C2)CN1C(=O)C(C)N1CCCC1)C(=O)C(=O)NC1CC1` (stereo partly drawn) [Compound 45, (3R,5S)-S-(1-(cyclopropylamino)-1,2-dioxohexan-3-ylcarbamoyl)-1-(2-(pyrrolidin-l-yl)propanoyl)pyrrolidin-3-yl 3,4-dihydroisoquinoline-2(1H)-carboxylate], for which the EC50 (Hepatitis C virus, 72 h) is above 100 µM.

In turn, `CCCC(NC(=O)C1C2CCCC2CN1C(=O)[C@H](C)N1CCCCC1)C(=O)C(=O)NC1CC1` (stereo partly drawn) [Compound 46, N-(1-(cyclopropylamino)-1,2-dioxohexan-3-yl)-2-((S)-2-(piperidin-1-yl)propanoyl)octahydrocyclopenta [c]pyrrole-1-carboxamide] registered a half-maximal effective concentration (EC50) (Hepatitis C virus, 72 h) below 100 µM.

For `CCCC(NC(=O)C1C2CCCC2CN1C(=O)[C@@H](N1CCCCC1)C(C)(C)C)C(=O)C(=O)NC1CC1` (stereo partly drawn) [Compound 47, N-(1-(cyclopropylamino)-1,2-dioxohexan-3-yl)-2-((S)-3,3-dimethyl-2-(piperidin-1-yl)butanoyl)octahydrocyclopenta [c]pyrrole-1-carboxamide], under “Hepatitis C virus, 72 h”, the half-maximal effective concentration (EC50) was below 100 µM.

For the compound `CCCC(NC(=O)C1C2CCCC2CN1C(=O)[C@@H](N1CCCCC1)C(C)(C)C)C(=O)C(=O)NC1CC1` (stereo partly drawn) [Compound 48, N-(1-(cyclopropylamino)-1,2-dioxohexan-3-yl)-2-((S)-3,3-dimethyl-2-(piperidin-1-yl)butanoyl)octahydrocyclopenta [c]pyrrole-1-carboxamide], the EC50 is below 100 µM.

Compound `CCCC(NC(=O)C1C2CCCC2CN1C(=O)[C@H](C(C)C)N1CCCCC1)C(=O)C(=O)NC1CC1` (stereo partly drawn) [Compound 49, N-(1-(cyclopropylamino)-1,2-dioxohexan-3-yl)-2-((S)-3-mcthyl-2-(piperidin-1 - yl)bulanoyl)octahydrocyclopenta [c]pyrrole-1-carboxamide] gave an EC50 (Hepatitis C virus, 72 h) below 100 µM.

Take `C=CC1CC1(NC(=O)[C@@H]1C[C@@H](Oc2cc(-c3ccccc3)nc3cc(OC)ccc23)CN1C(=O)[C@@H](N1CCCCC1)C(C)(C)C)C(=O)OCC` (stereo partly drawn) [Compound 50, ethyl 1-((2S,4R)-1-((S)-3,3-dimethyl-2-(piperidin-1-yl)butanoyl)-4-(7-methoxy-2-phenylquinolin-4-yloxy)pyrrolidine-2-carboxamido)-2-vinylcyclopropanecarboxylate]: the concentration for a half-maximal effect (EC50) (Hepatitis C virus, 72 h) was below 100 µM.

The compound `C=CC1CC1(NC(=O)[C@@H]1C[C@@H](Oc2cc(-c3ccccc3)nc3cc(OC)ccc23)CN1C(=O)[C@H](c1ccccc1)N1CCCCC1)C(=O)OCC` (stereo partly drawn) [Compound 51, ethyl 1-((2S,4R)-4-(7-methoxy-2-phenylquinolin-4-yloxy)-1-((S)-2-phenyl-2-(piperidin-1-yl)acetyl)pyrrolidine-2-carboxamido)-2-vinylcyclopropanecarboxylate] had an EC50 (Hepatitis C virus, 72 h) below 100 µM.

For `C=CC1CC1(NC(=O)[C@@H]1C[C@@H](Oc2cc(-c3ccccc3)nc3cc(OC)ccc23)CN1C(=O)[C@H](C(C)C)N1CCCCC1)C(=O)OCC` (stereo partly drawn) [Compound 52, ethyl 1-((2S,4R)-4-(7-methoxy-2-phenylquinolin-4-yloxy)-1-((S)-3-methyl-2-(piperidin-1-yl)butanoyl)pyrrolidine-2-carboxamido)-2-vinylcyclopropanecarboxylate], for the setting “Hepatitis C virus, 72 h”, the EC50 was below 100 µM.

For the compound `C=CC1CC1(NC(=O)[C@@H]1C[C@@H](Oc2cc(-c3ccccc3)nc3cc(OC)ccc23)CN1C(=O)[C@H](C1CCCCC1)N1CCCCC1)C(=O)OCC` (stereo partly drawn) [Compound 53, ethyl 1-((2S,4R)-1-((S)-2-cyclohexyl-2-(piperidin-1-yl)acetyl)-4-(7-methoxy-2-phenylquinolin-4-yloxy)pyrrolidine-2-carboxamido)-2-vinylcyclopropanecarboxylate], the EC50 (Hepatitis C virus, 72 h) is below 100 µM.

In turn, `C=CC1CC1(NC(=O)[C@@H]1C[C@@H](Oc2cc(-c3ccccc3)nc3cc(OC)ccc23)CN1C(=O)[C@H](C)N1CCCCC1)C(=O)OCC` (stereo partly drawn) [Compound 54, ethyl 1-((2S,4R)-4-(7-methoxy-2-phenylquinolin-4-yloxy)-1-((S)-2-(piperidin-1-yl)propanoyl)pyrrolidine-2-carboxamido)-2-vinylcyclopropanecarboxylate] gave an EC50 (Hepatitis C virus, 72 h) below 100 µM.

For the setting “Hepatitis C virus, 72 h”, `C=CC1CC1(NC(=O)[C@@H]1C[C@@H](Oc2cc(-c3ccccc3)nc3cc(OC)ccc23)CN1C(=O)[C@@H](N1CCCCC1)C(C)(C)C)C(=O)O` (stereo partly drawn) [Compound 55, 1-((2S,4R)-1-((S)-3,3-dimethyl-2-(piperidin-1-yl)butanoyl)-4-(7-methoxy-2-phenylquinolin-4-yloxy)pyrrolidine-2-carboxamido)-2-vinylcyclopropanecarboxylic acid] returned an EC50 below 100 µM.

Values taken from patent US8435984B2, “Tertiary amine substituted peptides useful as inhibitors of HCV replication” (Achillion Pharmaceuticals, Inc., priority 2007, dated 2013).
